Earlier results in patent US11020390B2, “Bioequivalent pharmaceutical composition of vortioxetine hydrobromide” (UNICHEM LABORATORIES LTD, priority 2017, dated 2021).

solubility in water: relatively poor
Compound: Br.Cc1ccc(Sc2ccccc2N2CCNCC2)c(C)c1 [vortioxetine hydrobromide, 1-[2-(2,4-Dimethyl-phenylsulfanyl)-phenyl]-piperazine, hydrobromide]
